In patent US10787696B2 (priority 2009, dated 2020):

Assays:
Assay type in all cases: cell-based
[1] = test system: synthetic promoter G5TO4 (tetracycline transcription silencer tTS); conditions: 1 μg/ml tetracycline; culture medium two days post-transfection; HeLa-tTS
[2] = test system: synthetic promoter G5TO4 (tetracycline transcription silencer tTS)
[3] = test system: synthetic promoter G5TO4 (tetracycline transcription silencer tTS); conditions: clone #32, 1 μg/ml tetracycline

CN(C)[C@@H]1C(O)=C(C(N)=O)C(=O)[C@@]2(O)C(O)=C3C(=O)c4c(O)cccc4[C@@](C)(O)[C@H]3C[C@@H]12 [tetracycline]
relative light units (RLU) with tetracycline vs. absence of tetracycline [1]: 16 fold
reporter activation by the addition of tetracycline [2]: more than 14 fold
reporter gene activation when tetracycline was added to the culture medium [3]: more than 200 fold
luciferase activity in medium of cells treated with tetracycline vs. not treated ([3]; 96-well microplate, one day): 200 fold
